Results published in ChEMBL document CHEMBL1156251, “Structure--activity relationships of polymyxin antibiotics” (J Med Chem, 2010).
In brackets after ≈: the same amount, converted by molar mass. *1 amine or outer side, *2 acyl side, *3 side chain or, on linkers, in order; H or OH if unused. Where a SMILES comes first, the peptide text is derived from it. Bridges are numbered along the chain shown (N, C = ends). [ ]: non-standard residue; d: D form. The star is where a group is joined. X1 = NC(=O)[C@@H](CS[*:2])C(=O)[*:1]; Octanoyl = CCCCCCCC(=O)*; Dab = NCC[C@H](N)C(=O)O

What was measured:
[1] = test system: Lipopolysaccharide (LPS); test: Displacement of dansyl-PMB from LPS by isothermal titration calorimetry; conditions: for IC50: read-out: IC50
[2] = test system: Pseudomonas aeruginosa; test: Antimicrobial activity against Pseudomonas aeruginosa; format: functional, organism-based
[3] = test system: Escherichia coli; test: Antimicrobial activity against Escherichia coli; format: functional
[4] = test system: Salmonella enterica; test: Antimicrobial activity against Salmonella enterica; format: functional

Row | Compound | Ka [1] | MIC [2] | MIC [3] [µM] | MIC [4] | IC50 [1] [µM]
1 | CC[C@H](C)[C@H](N)C(=O)N[C@@H](CCCCN)C(=O)N[C@H](C(=O)N[C@@H](CCCCN)C(=O)N[C@@H](CCCCN)C(=O)N[C@@H](Cc1ccccc1)C(=O)N[C@@H](CC(C)C)C(=O)N[C@@H](CCCCN)C(=O)N[C@@H](CCCCN)C(=O)N[C@H](C(=O)O)[C@@H](C)O)[C@@H](C)O (H-IKTKKFLKKT-OH) | 0.2 10^5/M | – | – | – | –
2 | CC(C)C[C@@H]1NC(=O)[C@@H](Cc2ccccc2)NC(=O)[C@H](CCN)NC(=O)[C@@H](NC(=O)[C@H](CCN)NC(=O)[C@@H](NC(=O)[C@H](CCN)NC(=O)CC23CC4CC(CC(C4)C2)C3)[C@@H](C)O)CCNC(=O)[C@H]([C@@H](C)O)NC(=O)[C@H](CCN)NC(=O)[C@H](CCN)NC1=O [1-ADAMANTANEACETIC ACID POLYMIXIN B] | – | 1 µM | 1 (≈ 1.24 µg/mL) | 0.5 µM | –
3 | CC(C)C[C@@H]1NC(=O)[C@@H](CC(C)C)NC(=O)[C@H](CCN)NC(=O)[C@@H](NC(=O)[C@H](CCN)NC(=O)[C@@H](NC(=O)[C@H](CCN)NC(=O)c2ccc3cc4ccccc4cc3c2)[C@@H](C)O)CCNC(=O)[C@H]([C@@H](C)O)NC(=O)[C@H](CCN)NC(=O)[C@H](CCN)NC1=O | – | 2 µM | 4 (≈ 4.93 µg/mL) | 2 µM | –
4 | CC(C)C[C@@H]1NC(=O)[C@@H](CC(C)C)NC(=O)[C@H](CCN)NC(=O)[C@@H](NC(=O)[C@H](CCN)NC(=O)[C@@H](NC(=O)[C@H](CCN)NC(=O)C2CCCCCCCCCCC2)[C@@H](C)O)CCNC(=O)[C@H]([C@@H](C)O)NC(=O)[C@H](CCN)NC(=O)[C@H](CCN)NC1=O [CYCLODODECANE CARBOXYLIC ACID COLISTIN] | – | 2 µM | 4 (≈ 4.89 µg/mL) | 2 µM | –
5 | CCCC1CCC(C(=O)N[C@@H](CCN)C(=O)N[C@H](C(=O)N[C@@H](CCN)C(=O)N[C@H]2CCNC(=O)[C@H]([C@@H](C)O)NC(=O)[C@H](CCN)NC(=O)[C@H](CCN)NC(=O)[C@H](CC(C)C)NC(=O)[C@@H](CC(C)C)NC(=O)[C@H](CCN)NC2=O)[C@@H](C)O)CC1 (stereo partly drawn) | – | 2 µM | 8 (≈ 9.45 µg/mL) | 8 µM | –
6 | C[C@@H](O)[C@H](N)C(=O)N[C@@H](CCN)C(=O)N[C@H]1CCNC(=O)[C@H]([C@@H](C)O)NC(=O)[C@H](CCN)NC(=O)[C@H](CCN)NC(=O)[C@H](Cc2ccccc2)NC(=O)[C@@H](Cc2ccccc2)NC(=O)[C@H](CCN)NC1=O | – | ≥ 250 µg/mL | – | – | 5
7 | CCCCCCCC(=O)N[C@@H](CCN)C(=O)N[C@H](C(=O)N[C@@H](C)C(=O)N[C@H]1CCNC(=O)[C@H]([C@@H](C)O)NC(=O)[C@H](CCN)NC(=O)[C@H](CCN)NC(=O)[C@H](CC(C)C)NC(=O)[C@@H](Cc2ccccc2)NC(=O)[C@H](CCN)NC1=O)[C@@H](C)O (Octanoyl-[Dab]TA[Dab][Dab][dF]L[Dab][Dab]T; lactam 4-C) | – | 2 µM | 1 (≈ 1.16 µg/mL) | 1 µM | –
8 | CC(C)C[C@@H]1NC(=O)[C@@H](CC(C)C)NC(=O)[C@H](CCN)NC(=O)[C@@H](NC(=O)[C@H](CCN)NC(=O)[C@@H](NC(=O)[C@H](CCN)NC(=O)Cc2ccc(-c3ccccc3)cc2)[C@@H](C)O)CCNC(=O)[C@H]([C@@H](C)O)NC(=O)[C@H](CCN)NC(=O)[C@H](CCN)NC1=O | – | 1 µM | 1 (≈ 1.22 µg/mL) | 2 µM | –
9 | CC(C)C[C@@H]1NC(=O)[C@@H](Cc2ccccc2)NC(=O)[C@H](CCN)NC(=O)[C@@H](NC(=O)[C@H](CCN)NC(=O)[C@@H](NC(=O)[C@H](CCN)NC(=O)Cc2ccc(-c3ccccc3)cc2)[C@@H](C)O)CCNC(=O)[C@H]([C@@H](C)O)NC(=O)[C@H](CCN)NC(=O)[C@H](CCN)NC1=O [4-BIPHENYL ACETIC ACID POLYMIXIN B] | – | 1 µM | 0.5 (≈ 0.629 µg/mL) | 1 µM | –
10 | CC(C)C[C@@H]1NC(=O)[C@@H](CC(C)C)NC(=O)[C@H](CCN)NC(=O)[C@@H](NC(=O)[C@H](CCN)NC(=O)[C@@H](NC(=O)[C@H](CCN)NC(=O)CCCc2cc3ccc4cccc5ccc(c2)c3c45)[C@@H](C)O)CCNC(=O)[C@H]([C@@H](C)O)NC(=O)[C@H](CCN)NC(=O)[C@H](CCN)NC1=O | – | 1 µM | 2 (≈ 2.6 µg/mL) | 2 µM | –
11 | CCCCCCCC(=O)N[C@H](C(=O)N[C@@H](CCN)C(=O)N[C@H]1CCNC(=O)[C@H]([C@@H](C)O)NC(=O)[C@H](CCN)NC(=O)[C@H](CCN)NC(=O)[C@H](CC(C)C)NC(=O)[C@@H](CC(C)C)NC(=O)[C@H](CCN)NC1=O)[C@@H](C)O [Octanoyl colistin nonapeptide] | – | 2 µM | 1 (≈ 1.06 µg/mL) | 4 µM | –
12 | CC(C)C[C@@H]1NC(=O)[C@@H](Cc2ccccc2)NC(=O)[C@H](CCN)NC(=O)[C@@H](NC(=O)[C@H](CCN)NC(=O)[C@@H](NC(=O)[C@H](CCN)NC(=O)C(c2ccccc2)C2CCCC2)[C@@H](C)O)CCNC(=O)[C@H]([C@@H](C)O)NC(=O)[C@H](CCN)NC(=O)[C@H](CCN)NC1=O (stereo partly drawn) [CYCLOPENTYLPHENYL ACETIC ACID POLYMIXIN B] | – | 2 µM | 8 (≈ 10 µg/mL) | 8 µM | –
13 | CC(C)C[C@@H]1NC(=O)[C@@H](CC(C)C)NC(=O)[C@H](CCN)NC(=O)[C@@H](NC(=O)[C@H](CCN)NC(=O)[C@@H](NC(=O)[C@H](CCN)NC(=O)C(c2ccccc2)C2CCCC2)[C@@H](C)O)CCNC(=O)[C@H]([C@@H](C)O)NC(=O)[C@H](CCN)NC(=O)[C@H](CCN)NC1=O (stereo partly drawn) [CYCLOPENTYLPHENYL ACETIC ACID COLISTIN] | – | 2 µM | 16 (≈ 19.4 µg/mL) | 16 µM | –
14 | CC(C)C[C@@H]1NC(=O)[C@@H](Cc2ccccc2)NC(=O)[C@H](CCN)NC(=O)[C@@H](NC(=O)[C@H](CCN)NC(=O)[C@@H](NC(=O)[C@H](CCN)NC(=O)C2CCCCCCCCCCC2)[C@@H](C)O)CCNC(=O)[C@H]([C@@H](C)O)NC(=O)[C@H](CCN)NC(=O)[C@H](CCN)NC1=O [CYCLODEDECANE CARBOXYLIC ACID POLYMIXIN B] | – | 2 µM | 2 (≈ 2.52 µg/mL) | 2 µM | –
15 | CC(C)C[C@@H]1NC(=O)[C@@H](Cc2ccccc2)NC(=O)[C@H](CCN)NC(=O)[C@@H](NC(=O)[C@H](CCN)NC(=O)[C@@H](NC(=O)[C@H](CCN)NC(=O)CCCC2CCCCC2)[C@@H](C)O)CCNC(=O)[C@H]([C@@H](C)O)NC(=O)[C@H](CCN)NC(=O)[C@H](CCN)NC1=O | – | 1 µM | 0.5 (≈ 0.608 µg/mL) | 0.5 µM | –
16 | C[C@@H]1NC(=O)[C@@H](Cc2ccccc2)NC(=O)[C@H](CCN)NC(=O)[C@@H](NC(=O)[C@H](CCN)NC(=O)[C@@H](N)[C@@H](C)O)CCNC(=O)[C@H]([C@@H](C)O)NC(=O)[C@H](CCN)NC(=O)[C@H](CCN)NC1=O | – | ≥ 250 µg/mL | – | – | 12
17 | CC(C)C[C@@H]1NC(=O)[C@@H](CC(C)C)NC(=O)[C@H](CCN)NC(=O)[C@@H](NC(=O)[C@H](CCN)NC(=O)[C@@H](NC(=O)[C@H](CCN)NC(=O)CCCC2CCCCC2)[C@@H](C)O)CCNC(=O)[C@H]([C@@H](C)O)NC(=O)[C@H](CCN)NC(=O)[C@H](CCN)NC1=O | – | 1 µM | 2 (≈ 2.36 µg/mL) | 1 µM | –
18 | CC(C)C[C@@H]1NC(=O)[C@@H](Cc2ccc(O)cc2)NC(=O)[C@H](CCN)NC(=O)[C@@H](NC(=O)[C@H](CCN)NC(=O)[C@@H](N)[C@@H](C)O)CCNC(=O)[C@H]([C@@H](C)O)NC(=O)[C@H](CCN)NC(=O)[C@H](CCN)NC1=O | – | ≥ 500 µg/mL | – | – | 25
19 | CC(C)C[C@@H]1NC(=O)[C@@H](Cc2ccccc2)NC(=O)[C@H](CCN)NC(=O)[C@@H](NC(=O)[C@H](CCN)NC(=O)[C@@H](NC(=O)[C@H](CCN)NC(=O)c2ccc3ccccc3c2)[C@@H](C)O)CCNC(=O)[C@H]([C@@H](C)O)NC(=O)[C@H](CCN)NC(=O)[C@H](CCN)NC1=O [2-ANTHRACENE CARBOXYLIC ACID POLYMIXIN B] | – | 2 µM | 4 (≈ 4.87 µg/mL) | 2 µM | –
20 | CCCCCCCCCCCCCC(=O)N[C@H](C(=O)N[C@@H](CCN)C(=O)N[C@H]1CCNC(=O)[C@H]([C@@H](C)O)NC(=O)[C@H](CCN)NC(=O)[C@H](CCN)NC(=O)[C@H](CC(C)C)NC(=O)[C@@H](Cc2ccccc2)NC(=O)[C@H](CCN)NC1=O)[C@@H](C)O | – | 4 µM | 4 (≈ 4.69 µg/mL) | 4 µM | –
21 | CC(C)C[C@@H]1NC(=O)[C@H](Cc2ccccc2)NC(=O)[C@H](CCCCN)NC(=O)[C@@H](C(N)=O)CSSC[C@@H](C(N)=O)NC(=O)[C@H](CCCCN)NC(=O)[C@H](CCCCN)NC1=O (KFLKKC-NH2; linker N-6 via X1) | 1.15 10^5/M | – | – | > 1000 µg/mL | –
22 | CC(C)C[C@@H]1NC(=O)[C@@H](Cc2c[nH]c3ccccc23)NC(=O)[C@H](CCN)NC(=O)[C@@H](NC(=O)[C@H](CCN)NC(=O)[C@@H](N)[C@@H](C)O)CCNC(=O)[C@H]([C@@H](C)O)NC(=O)[C@H](CCN)NC(=O)[C@H](CCN)NC1=O | – | ≥ 500 µg/mL | – | – | 4
23 | CC(=O)N[C@H](C(=O)N[C@@H](CCN)C(=O)N[C@H]1CCNC(=O)[C@H]([C@@H](C)O)NC(=O)[C@H](CCN)NC(=O)[C@H](CCN)NC(=O)[C@H](CC(C)C)NC(=O)[C@@H](Cc2ccccc2)NC(=O)[C@H](CCN)NC1=O)[C@@H](C)O | – | 2 µM | 32 (≈ 32.2 µg/mL) | 128 µM | –
24 | CCCCCCCC(=O)N[C@@H](CCN)C(=O)N[C@@H](C)C(=O)N[C@@H](CCN)C(=O)N[C@H]1CCNC(=O)[C@H]([C@@H](C)O)NC(=O)[C@H](CCN)NC(=O)[C@H](CCN)NC(=O)[C@H](CC(C)C)NC(=O)[C@@H](Cc2ccccc2)NC(=O)[C@H](CCN)NC1=O (Octanoyl-[Dab]A[Dab][Dab][Dab][dF]L[Dab][Dab]T; lactam 4-C) | – | 2 µM | 8 (≈ 9.28 µg/mL) | 4 µM | –
25 | CCCCCCCC(=O)N[C@@H](C)C(=O)N[C@H](C(=O)N[C@@H](CCN)C(=O)N[C@H]1CCNC(=O)[C@H]([C@@H](C)O)NC(=O)[C@H](CCN)NC(=O)[C@H](CCN)NC(=O)[C@H](CC(C)C)NC(=O)[C@@H](Cc2ccccc2)NC(=O)[C@H](CCN)NC1=O)[C@@H](C)O (Octanoyl-AT[Dab][Dab][Dab][dF]L[Dab][Dab]T; lactam 4-C) | – | 2 µM | 2 (≈ 2.32 µg/mL) | 2 µM | –
